According to ChEMBL document CHEMBL4130350, “Discovery, mechanism and metabolism studies of 2,3-difluorophenyl-linker-containing PARP1 inhibitors with enhanced in vivo efficacy for cancer therapy” (Eur J Med Chem, 2017):
In brackets after ≈: the same amount, converted by molar mass. Activity calls are given as the source filed them. The rule behind the calls is not given here.

How the values were obtained:
MDA-MB-436 [1] = experiment: Antiproliferative activity against human MDA-MB-436 cells after 7 days by CCK8 or SRB assay; type: functional, cell-based; conditions: MDA-MB-436, 168 h
[2] = Cytotoxicity against BRCA2 deficient Chinese hamster VC8 cells after 3 days by CCK8 or SRB assay; type: functional, cell-based; conditions: Cricetulus griseus, V-C8, 72 h
V79 = experiment: Cytotoxicity against BRCA2 expressing Chinese hamster V79 cells after 3 days by CCK8 or SRB assay; type: cell-based; conditions: Cricetulus griseus, V79, 72 h
CAPAN-1 [3] = experiment: Antiproliferative activity against human Capan1 cells after 7 days by CCK8 or SRB assay; type: functional, cell-based; conditions: CAPAN-1, 168 h
CAPAN-1 [4] = experiment: Antitumor activity against human Capan1 cells harboring BRCA2 mutant xenografted in nude BALB/cA mouse assessed as tumor growth inhibition at 0.5 mg/kg, po administered once daily for 21 consecutive days measured twice per week; type: functional; conditions: CAPAN-1, po, read-out: TGI
[5] = Half life in Sprague-Dawley rat at 1 mg/kg, iv by LC-MS/MS analysis; type: ADME, organism-based; conditions: in vivo
Rattus norvegicus = experiment: Half life in Sprague-Dawley rat at 2 mg/kg, po by LC-MS/MS analysis; type: ADME, organism-based; conditions: in vivo
[6] = Clearance in Sprague-Dawley rat at 1 mg/kg, iv by LC-MS/MS analysis; type: ADME, organism-based; conditions: in vivo
[7] = Volume of distribution in Sprague-Dawley rat at 1 mg/kg, iv by LC-MS/MS analysis; type: ADME, organism-based; conditions: in vivo
[8] = Cmax in Sprague-Dawley rat at 1 mg/kg, iv by LC-MS/MS analysis; type: ADME, organism-based; set-up: dose 1 mg/kg, route intravenous; conditions: in vivo
[9] = Cmax in Sprague-Dawley rat at 2 mg/kg, po by LC-MS/MS analysis; type: ADME, organism-based; set-up: dose 2 mg/kg, route oral; conditions: in vivo
[10] = AUC in Sprague-Dawley rat at 1 mg/kg, iv by LC-MS/MS analysis; type: ADME, organism-based; conditions: in vivo
[11] = AUC in Sprague-Dawley rat at 2 mg/kg, po by LC-MS/MS analysis; type: ADME, organism-based; conditions: in vivo
[12] = Oral bioavailability in Sprague-Dawley rat at 2 mg/kg by LC-MS/MS analysis; type: ADME, organism-based; conditions: in vivo
[13] = Stability in mouse plasma at 1 uM up to 60 mins by LC-MS/MS analysis; type: ADME, cell-free; conditions: read-out: Stability
[14] = Protein binding in mouse plasma at 0.5 to 50 uM after 4 hrs by LC-MS/MS analysis; type: ADME, cell-free; conditions: read-out: PPB (converted)
[15] = Elimination half-life in mouse liver microsomes at 2 uM up to 60 mins by LC-MS/MS analysis; type: ADME, microsome; conditions: read-out: beta t1/2
[16] = Apparent permeability across apical to basolateral side in human Caco2 cells after 2 hrs by LC-MS/MS analysis; type: ADME, cell-based; conditions: Caco-2
[17] = Apparent permeability across basolateral to apical side in human Caco2 cells after 2 hrs by LC-MS/MS analysis; type: ADME, cell-based; conditions: Caco-2
[18] = Apparent permeability across apical to basolateral side in human Caco2 cells assessed as drug recovery at 5631.3 pmol after 2 hrs by LC-MS/MS analysis; type: ADME, cell-based; conditions: Caco-2, read-out: Drug recovery
[19] = Apparent permeability across basolateral to apical side in human Caco2 cells assessed as drug recovery at 18593.3 pmol after 2 hrs by LC-MS/MS analysis; type: ADME, cell-based; conditions: Caco-2, read-out: Drug recovery
Mus musculus [20] = experiment: Toxicity in nude BALB/cA mouse xenografted with human Capan1 cells harboring BRCA2 mutant assessed as mortality at 0.5 mg/kg, po administered once daily for 21 consecutive days measured twice per week; type: organism-based; conditions: in vivo
Mus musculus [21] = experiment: Toxicity in nude BALB/cA mouse xenografted with human Capan1 cells harboring BRCA2 mutant assessed as weight loss at 0.5 mg/kg, po administered once daily for 21 consecutive days measured twice per week; type: organism-based; conditions: in vivo
[22] = target: Poly [ADP-ribose] polymerase 1 (Homo sapiens, UniProt P09874); experiment: Inhibition of PARP1 (unknown origin) by ELISA
[23] = Solubility of the compound in water after 24 hrs by HPLC analysis; type: physicochemical
CAPAN-1 [24] = experiment: Cell cycle arrest in human Capan1 cells assessed as accumulation at G0/G1 phase at 0.1 uM after 72 hrs by propidium iodide-staining based flow cytometry (reference value: 63.33%); type: functional
CAPAN-1 [25] = experiment: Cell cycle arrest in human Capan1 cells assessed as accumulation at S phase at 0.1 uM after 72 hrs by propidium iodide-staining based flow cytometry (reference value: 21.42%); type: functional
CAPAN-1 [26] = experiment: Cell cycle arrest in human Capan1 cells assessed as accumulation at G2/M phase at 0.1 uM after 72 hrs by propidium iodide-staining based flow cytometry (reference value: 15.26%); type: functional
CAPAN-1 [27] = experiment: Cell cycle arrest in human Capan1 cells assessed as accumulation at G0/G1 phase at 1 uM after 72 hrs by propidium iodide-staining based flow cytometry (reference value: 63.33%); type: functional
CAPAN-1 [28] = experiment: Cell cycle arrest in human Capan1 cells assessed as accumulation at S phase at 1 uM after 72 hrs by propidium iodide-staining based flow cytometry (reference value: 21.42%); type: functional
CAPAN-1 [29] = experiment: Cell cycle arrest in human Capan1 cells assessed as accumulation at G2/M phase at 1 uM after 72 hrs by propidium iodide-staining based flow cytometry (reference value: 15.26%); type: functional
MDA-MB-436 [30] = experiment: Induction of apoptosis in human MDA-MB-436 cells assessed as early apoptotic cells at 0.1 uM after 96 hrs by Annexin V-FITC/propidium iodide double-staining based flow cytometery (reference value: 1.90%); type: functional
MDA-MB-436 [31] = experiment: Induction of apoptosis in human MDA-MB-436 cells assessed as late apoptotic cells at 0.1 uM after 96 hrs by Annexin V-FITC/propidium iodide double-staining based flow cytometery (reference value: 5.61%); type: functional
MDA-MB-436 [32] = experiment: Induction of apoptosis in human MDA-MB-436 cells assessed as early apoptotic cells at 1 uM after 96 hrs by Annexin V-FITC/propidium iodide double-staining based flow cytometery (reference value: 1.90%); type: functional
MDA-MB-436 [33] = experiment: Induction of apoptosis in human MDA-MB-436 cells assessed as late apoptotic cells at 1 uM after 96 hrs by Annexin V-FITC/propidium iodide double-staining based flow cytometery (reference value: 5.61%); type: functional
MDA-MB-436 [34] = experiment: Induction of apoptosis in human MDA-MB-436 cells assessed as early apoptotic cells at 0.1 uM after 96 hrs in presence of pancaspase inhibitor Z-VAD-FMK by Annexin V-FITC/propidium iodide double-staining based flow cytometery (reference value: 2.32%); type: functional
MDA-MB-436 [35] = experiment: Induction of apoptosis in human MDA-MB-436 cells assessed as late apoptotic cells at 0.1 uM after 96 hrs in presence of pancaspase inhibitor Z-VAD-FMK by Annexin V-FITC/propidium iodide double-staining based flow cytometery (reference value: 5.11%); type: functional
MDA-MB-436 [36] = experiment: Induction of apoptosis in human MDA-MB-436 cells assessed as early apoptotic cells at 1 uM after 96 hrs in presence of pancaspase inhibitor Z-VAD-FMK by Annexin V-FITC/propidium iodide double-staining based flow cytometery (reference value: 2.32%); type: functional
MDA-MB-436 [37] = experiment: Induction of apoptosis in human MDA-MB-436 cells assessed as late apoptotic cells at 1 uM after 96 hrs in presence of pancaspase inhibitor Z-VAD-FMK by Annexin V-FITC/propidium iodide double-staining based flow cytometery (reference value: 5.11%); type: functional
MDA-MB-436 [38] = experiment: Induction of apoptosis in human MDA-MB-436 cells assessed as caspase-3/7 activation at 0.1 to 1 uM after 72 hrs by Caspase-Glo 3/7 assay; type: functional, cell-based
MDA-MB-436 [39] = experiment: Antitumor activity against human MDA-MB-436 cells harboring BRCA1 mutant xenografted in nude BALB/cA mouse assessed as tumor growth inhibition at 100 mg/kg, po administered once daily for 21 consecutive days measured twice per week; type: functional; conditions: MDA-MB-436, po, read-out: TGI
[40] = Half life in Sprague-Dawley rat at 10 mg/kg, iv by LC-MS/MS analysis; type: ADME, organism-based; conditions: in vivo
[41] = Half life in Sprague-Dawley rat at 20 mg/kg, po by LC-MS/MS analysis; type: ADME, organism-based; conditions: in vivo
[42] = Clearance in Sprague-Dawley rat at 10 mg/kg, iv by LC-MS/MS analysis; type: ADME, organism-based; conditions: in vivo
[43] = Volume of distribution in Sprague-Dawley rat at 10 mg/kg, iv by LC-MS/MS analysis; type: ADME, organism-based; conditions: in vivo
[44] = Cmax in Sprague-Dawley rat at 10 mg/kg, iv by LC-MS/MS analysis; type: ADME, organism-based; set-up: dose 10 mg/kg, route intravenous; conditions: in vivo
[45] = Cmax in Sprague-Dawley rat at 20 mg/kg, po by LC-MS/MS analysis; type: ADME, organism-based; set-up: dose 20 mg/kg, route oral; conditions: in vivo
[46] = AUC in Sprague-Dawley rat at 10 mg/kg, iv by LC-MS/MS analysis; type: ADME, organism-based; conditions: in vivo
[47] = AUC in Sprague-Dawley rat at 20 mg/kg, po by LC-MS/MS analysis; type: ADME, organism-based; conditions: in vivo
[48] = Oral bioavailability in Sprague-Dawley rat at 20 mg/kg by LC-MS/MS analysis; type: ADME, organism-based; conditions: in vivo

Poly [ADP-ribose] polymerase 1, sequence (P09874 whole entry): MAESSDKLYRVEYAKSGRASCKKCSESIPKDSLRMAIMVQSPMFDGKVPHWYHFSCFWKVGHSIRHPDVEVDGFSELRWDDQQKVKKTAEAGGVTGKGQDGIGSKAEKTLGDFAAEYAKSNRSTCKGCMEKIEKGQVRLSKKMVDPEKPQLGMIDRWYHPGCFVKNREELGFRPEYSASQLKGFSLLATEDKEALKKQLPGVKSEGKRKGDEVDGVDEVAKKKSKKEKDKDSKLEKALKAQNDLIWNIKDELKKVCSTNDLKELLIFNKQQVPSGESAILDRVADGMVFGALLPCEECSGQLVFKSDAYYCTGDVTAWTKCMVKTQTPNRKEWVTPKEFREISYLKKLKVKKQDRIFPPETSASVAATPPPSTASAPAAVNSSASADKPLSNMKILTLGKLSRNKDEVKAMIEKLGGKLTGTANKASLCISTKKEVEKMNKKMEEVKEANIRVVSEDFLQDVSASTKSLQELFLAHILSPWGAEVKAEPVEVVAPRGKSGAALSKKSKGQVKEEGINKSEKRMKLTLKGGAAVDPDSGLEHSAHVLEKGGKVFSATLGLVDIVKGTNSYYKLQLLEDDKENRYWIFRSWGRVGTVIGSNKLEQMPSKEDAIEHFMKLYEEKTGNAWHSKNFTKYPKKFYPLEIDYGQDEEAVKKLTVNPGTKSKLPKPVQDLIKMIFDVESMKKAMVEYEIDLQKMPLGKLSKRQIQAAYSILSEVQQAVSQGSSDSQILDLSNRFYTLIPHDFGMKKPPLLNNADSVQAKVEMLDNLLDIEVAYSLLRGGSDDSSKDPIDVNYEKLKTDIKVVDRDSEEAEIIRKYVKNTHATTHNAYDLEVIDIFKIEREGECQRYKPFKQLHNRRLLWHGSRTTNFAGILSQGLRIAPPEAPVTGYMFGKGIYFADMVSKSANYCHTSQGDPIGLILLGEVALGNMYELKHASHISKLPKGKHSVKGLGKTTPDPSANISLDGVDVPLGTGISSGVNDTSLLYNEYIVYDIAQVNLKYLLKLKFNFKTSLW

`Cn1ncnc1[C@H]1c2n[nH]c(=O)c3cc(F)cc(c23)N[C@@H]1c1ccc(F)cc1` [TALAZOPARIB] showed an IC50 (MDA-MB-436 [1]) of 0.7 nM, an IC50 [2] of 4.2 nM and an IC50 (V79) of 5010 nM. For the same compound, the IC50 (CAPAN-1 [3]) was 1.8 nM, the inhibition in vivo at 0.5 mg/kg (CAPAN-1 [4]) was 80% and the half-life [5] was 4.6 h. The t1/2 (Rattus norvegicus) was 3.4 h, the clearance [6] was 3.33 mL/min/kg and the Vd [7] was 1.1 L/kg. The Cmax [8] was 2060 ng/mL, the Cmax [9] was 3100 ng/mL and the AUC [10] was 6540 ng·h/mL. It also gave an AUC [11] of 13200 ng·h/mL, a bioavailability [12] of 104% and a remaining at 1 h, 1 µM [13] of 106%. For the same compound, the fraction unbound at 4 h, up to 50 µM [14] was 0.057, the half-life at 2 µM [15] was > 1 h and the Papp A→B at 2 h [16] was 0.9 ×10⁻⁶ cm/s. For the same compound, the Papp B→A at 2 h [17] was 51.8 ×10⁻⁶ cm/s, the recovery at 2 h [18] was 98.4% and the recovery at 2 h [19] was 108%. For the same compound, the Activity (Mus musculus [20]) was “Toxic” and the Activity (Mus musculus [21]) was “Toxic”.
With `N#Cc1ccccc1N1CCN(C(=O)c2cc(Cc3n[nH]c(=O)c4ccccc34)cc(F)c2F)CC1` the IC50 [22] was 0.02 nM, the IC50 (MDA-MB-436 [1]) was < 0.05 nM and the IC50 [2] was 8.8 nM. For the same compound, the IC50 (V79) was 4340 nM and the solubility at 24 h [23] was < 0.2 µg/mL.
In the case of `O=C(c1cc(Cc2n[nH]c(=O)c3ccccc23)ccc1F)N1CCN(C(=O)C2CC2)CC1` [OLAPARIB], the IC50 (MDA-MB-436 [1]) is reported as 39.3 nM, the IC50 [2] is reported as 566 nM and the IC50 (V79) is reported as 10000 to 54200 nM. For the same compound, the solubility at 24 h [23] was 104 µg/mL (≈ 239 µM), the Activity (CAPAN-1 [24]) was 51.83% and the Activity (CAPAN-1 [25]) was 27.2%. For the same compound, the Activity (CAPAN-1 [26]) was 20.91%, the Activity (CAPAN-1 [27]) was 22.33% and the Activity (CAPAN-1 [28]) was 26.14%. It also gave an Activity (CAPAN-1 [29]) of 51.54%, an Activity (MDA-MB-436 [30]) of 2.5% and an Activity (MDA-MB-436 [31]) of 9.78%. It also gave an Activity (MDA-MB-436 [32]) of 4.15%, an Activity (MDA-MB-436 [33]) of 17.75% and an Activity (MDA-MB-436 [34]) of 3.3%. For the same compound, the Activity (MDA-MB-436 [35]) was 6.52%, the Activity (MDA-MB-436 [36]) was 4.79% and the Activity (MDA-MB-436 [37]) was 9.97%. For the same compound, the IC50 (CAPAN-1 [3]) was 399 nM, the Activity (MDA-MB-436 [38]) was “Active” and the inhibition in vivo at 100 mg/kg (MDA-MB-436 [39]) was 65%. It also gave a half-life [40] of 1.1 h, a half-life [41] of 1 h and a clearance [42] of 30 mL/min/kg. The Vd [43] was 3 L/kg, the Cmax [44] was 12300 ng/mL and the Cmax [45] was 2590 ng/mL. For the same compound, the AUC [46] was 5500 ng·h/mL, the AUC [47] was 4990 ng·h/mL and the bioavailability [48] was 45.4%.
